These results are taken from publication PMC11219871, “Epigenetic-based differentiation therapy for Acute Myeloid Leukemia” (Nature Communications, 2024).

SMILES strings stand for the structures. Several values for one entry are separate records, joined by “and”; a condition that tells them apart may be missing. Equal values may be shown once. Read-outs that look alike come from different tables or passages of the source.

The subject of series [1] is H3Ac and H3K27me3 levels in HL-60, ML-2, MV4-11 and MOLM-13 cell lines. Kind of series: Western blot of histone marks. It is filed as cell-based, human. To be noted: HL-60, 270 nM CM-444 or 300 nM CM-1758, 48 h. The procedure:
Histone extraction was performed with a Histone extraction Kit (Abcam, Cambridge, UK) following the manufacturer’s instructions. The histone concentration in the extract was measured using the dye-binding assay of Bradford. A 10 µg amount of histone was separated on 15% sodium dodecyl sulfate-polyacrylamide gel electrophoresis and transferred to a nitrocellulose membrane. The membrane, after being blocked with Tropix I-block blocking reagent (Cat No AI300, Tropix) in PBS with 0.1% Tween 20 and 0.02 NaN3 was incubated with the primary antibody against Acetyl H3 (rabbit polyclonal antibody, Cat No 06-599, Millipore) diluted 1:50,000 o/n at 4 °C or against H3K27 me3 (mouse monoclonal antibody to histone H3 trimethyl K27, Cat No ab6002, Abcam) diluted 1:2000 in bovine serum albumin o/n at 4 °C and then with alkaline phosphatase-conjugated secondary antibodies. […] Total H3 was used as a loading control (diluted 1:50,000 o/n at 4 °C or for 1 h at room temperature) (Anti-Histone H3, CT, pan, rabbit polyclonal, Cat No 07-690, Millipore). Images have been cropped for presentation.

The target in series [2] is HDAC2 (Homo sapiens, UniProt Q92769). Kind of series: HDAC enzymatic assay, fluorescence-labeled substrate. It is filed as biochemical. Conditions: for inhibition at 10 µM: source data of Fig. 1B.
Chain of HDAC2 (Q92769 whole entry): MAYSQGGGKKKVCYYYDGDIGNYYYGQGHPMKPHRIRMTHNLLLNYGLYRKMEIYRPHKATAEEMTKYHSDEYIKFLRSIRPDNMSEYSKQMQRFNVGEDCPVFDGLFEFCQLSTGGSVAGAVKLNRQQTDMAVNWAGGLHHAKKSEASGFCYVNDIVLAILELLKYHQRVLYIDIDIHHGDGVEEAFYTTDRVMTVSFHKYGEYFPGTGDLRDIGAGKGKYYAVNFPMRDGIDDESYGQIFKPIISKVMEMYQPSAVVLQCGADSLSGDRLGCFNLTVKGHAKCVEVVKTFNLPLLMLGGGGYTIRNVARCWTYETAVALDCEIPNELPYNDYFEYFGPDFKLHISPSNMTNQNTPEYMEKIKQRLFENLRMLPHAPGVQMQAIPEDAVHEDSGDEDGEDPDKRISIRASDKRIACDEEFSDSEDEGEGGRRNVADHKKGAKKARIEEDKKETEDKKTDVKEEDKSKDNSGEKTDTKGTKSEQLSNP
Series [3] deals with HL-60 cells in BALB/cA Rag2-/-γc-/- mice. Kind of series: Subcutaneous implant of in vitro pretreated cells, tumor volume. Also noted: key to Tumor volume: mm^3; V = D×d²/2 (D longest, d shortest diameter). It is filed as in vivo, mouse. Conditions: for tumor growth: HL-60 cells pretreated in vitro 4 days, s.c.; for Tumor volume: HL-60 cells pretreated in vitro for 96 hours with 270 nM of CM-444 or 300 nM of CM-1758, injected subcutaneously, individual mice. The procedure: (§1) The human AML HL-60 and ML-2 cell lines were first pretreated in vitro daily with 270 and 260 nM of CM-444 or 300 and 210 nM of CM-1758, respectively, for 4 days. Prior to injection in mice, the cell differentiation induction by CM-444 and CM-1758 compounds was verified by measuring CD11b by flow cytometry, as described earlier. Then, 5 × 10^6 cells of cells, pretreated with CM-444, […], or vehicle (80% saline solution, 10% DMSO and 10% Tween 20) and diluted in 100 µL of saline solution, were implanted subcutaneously into the flank of female BALB/cA Rag2^−/−γc^−/− mice between 6 and 8 weeks of age (n = 8). Tumor size was analyzed every 2–3 days using the following method: […], where D and d corresponded to the longest and shortest diameter, respectively. The maximal tumor size/burden permitted by the Animal Care and Ethics Committee of the University of Navarra is 2000 mm^3. In some cases, this limit was reached on the last day of measurement and the mice were immediately euthanized.

The subject of series [4] is ML-2 cells in BALB/cA Rag2-/-γc-/- mice. The series is described as above. It is filed as in vivo, mouse. Further details: key to Tumor volume: mm^3; V = D×d²/2 (D longest, d shortest diameter). To be noted: for tumor growth: ML-2 cells pretreated in vitro 4 days, s.c.; for Tumor volume: ML-2 cells pretreated in vitro for 96 hours, injected subcutaneously, individual mice (Fig 3A). As for the experimental part: as §1

Series [5] in a line: CACO-2 permeability. It is filed as in vitro ADME. Conditions: human; for efflux ratio at 120 min, 2 µM: Caco-2, pH 7.4; for Papp A→B at 120 min, 2 µM: Caco-2, pH 7.4, A to B. As for the experimental part:
This study was conducted at Wuxi (http://www.wuxi.com/). Caco-2 cells (ATCC) were seeded onto polyethylene membranes in 96-well BD insert plates at 1 × 10^5 cells/cm^2, and the medium was changed every 4 days until the 21st to 28th day for confluent cell monolayer formation. Test compounds were diluted with transport buffer (HBSS with 10 mM HEPES at pH 7.4 ± 0.05) to a concentration of 2 µM (final DMSO concentration adjusted to <1%) and tested bi-directionally to investigate P-glycoprotein-mediated efflux in duplicate. Controls: digoxin (10 μM, bi-directionally), nanodolol and metoprolol (2 μM, apical, A, to basolateral, B). The permeation was assessed over a 120-minute incubation at 37 °C ± 1 °C and 5% CO2 at saturated humidity without shaking. Samples were mixed with acetonitrile containing internal standard and centrifuged at 1520 g for 10 min. Then, 100-μL aliquots of supernatant solutions were diluted with 100 μL of pure water. Concentrations of test and control compounds in starting solution, donor solution, and receiver solution were quantified by LC-MS/MS using a peak area ratio of analyte to internal standard. Permeation of lucifer yellow through the monolayer was measured to evaluate the cellular integrity. The results are the average of two biological replicates.

The test system of series [6] is HL-60, ML-2, MOLM-13 and MV4-11. Briefly: γ-H2AX immunofluorescence (DNA damage). The series is classed as cell-based. To be noted: daily treatment 48 hours, four AML cell lines.
Method: authors should analyze this e.g by gH2AX immunofluorescence staining.
As positive control, HL-60 cells irradiated with an acute dose of 30 J/m2 UV for 2 minutes were
(see Reviewer Figure 22).
The nature of series [7]: Cryopreserved hepatocyte stability. The series is classed as in vitro ADME. To be noted: read-out: Liver Hepatocytes Estimation T1/2. The procedure: This study was conducted at Wuxi (http://www.wuxi.com/). […] Stock solutions of test compound (10 mM; 100% DMSO) and positive controls (7-ethoxycoumarin and 7-hydroxycoumarin; 30 mM; 100% DMSO) were diluted to 1 mM and 3 mM with DMSO and then diluted to 100 μM and 300 μM with acetonitrile (dosing solutions). Cryopreserved cells (from Human Donors, Bioreclamation IVT, Cat No. X008001 and from male C57 Mice, Bioreclamation IVT, Cat No. S00463) were thawed, isolated and suspended in Williams’ Medium E, then diluted with pre-warmed Williams’ Medium E to 0.5 × 10^6 cells/mL. Cell viability was tested by trypan blue exclusion after thawing. A volume of 2 μL of dosing solution and 198 μL of pre-warmed cell suspensions were added to a 96-well plate and incubated at 37 °C (5% CO2) with constant shaking at 600 rpm. Following different incubation times (0, 15, 30, 60 and 90 min), 20 μL of each sample was transferred to a well containing 80 μL of ice-cold stop solution (acetonitrile containing 200 ng/mL tolbutamide and 200 ng/mL labetalol as internal standards). Plates were vortexed at 27 g for 10 min and then centrifuged at 3220 × g for 20 min at 4 °C. An aliquot of supernatant (75 μL) was transferred from each well and mixed with 75 μL of ultra-pure water before submitting to LC-MS/MS analysis. Concentrations of test and control compounds were quantified by LC-MS/MS using a peak area ratio of analyte/internal standard, and the percent loss of the parent compound was calculated at each time point to determine the half-life (t1/2, min). Experiments were performed in duplicate.

The mark [8] stands for this setting: cryopreserved hepatocytes, Human.
Where [9] appears, read: male, C57, cryopreserved hepatocytes, Mouse.

Regarding `COc1cc2nc(-c3ccc(C)o3)cc(NCC3CCN(c4ncc(C(=O)NO)cn4)CC3)c2cc1OC` [CM-444, 2-[4-[[[6,7-dimethoxy-2-(5-methyl-2-furyl)-4-quinolyl]amino]methyl]-1-piperidyl]pyrimidine-5-carbohydroxamic acid], the “H3Ac level (western blot)” value in series [1] was “significant increase in H3Ac”. For the same compound, the “H3K27me3 level (western blot)” value in series [1] was “no changes in H3K27me3”. The compound also came in with an IC50 in series [2] of 51 nM. Further, the inhibition at 10 µM in series [2] stood at 90%. Moreover, the tumor growth result in series [3] and in series [4] was “tumor growth was significantly slower” in each case. Further, the Tumor volume in series [3] (day 0, in mm³) is 0; in series [3] (day 6), 0 (3×) and 15.188 and 103.406 and 17.053; in series [3] (day 8, in mm³), 74.6826 and 76.624 and 60.9783 and 227.696 and 55.1928 and 10.6605 and 0; in series [3] (day 10, in mm³) it was 208.487 and 290.654 and 187.094 and 596.573 and 195.686 and 84.5628 and 14.1488; in series [3] (day 13, in mm³), 1082.75 and 1016.65 and 1040.97 and 728.909 and 903.701 and 1085.29; in series [4] (day 0, in mm³) it was 0. For the same compound, the Tumor volume was 0 in series [4] (day 5, in mm³); 0 in series [4] (day 7, in mm³); 0 (5×) and 2.103 and 2.907 and 1.967 in series [4] (day 9); 0 (3×) and 15.5058 and 44.8074 and 14.292 and 43.7037 and 21.7346 in series [4] (day 12); 56.0772 and 79.1967 and 185.795 and 76.3392 and 203.44 and 147.179 and 18.725 and 23.4078 in series [4] (day 14, in mm³); 136.524 and 233.533 and 382.095 and 345.104 and 527.015 and 508.257 and 54.687 and 46.2692 in series [4] (day 16, in mm³). Besides, the efflux ratio at 120 min, 2 µM in series [5] was over 1050. In series [5], this compound showed a Papp A→B at 120 min, 2 µM of under 0.01 ×10⁻⁶ cm/s. The “DNA damage (γ-H2AX)” value in series [6] is on record as “do not induced DNA damage”. Moreover, the half-life at 1 µM in series [7] (setting [8]) is 71.1 min; in series [7] (setting [9]), 22.8 min.
On to `COc1cc2nc(-c3cc(C)oc3C)cc(NCC3CCN(c4ncc(C(=O)NO)cn4)CC3)c2cc1OC` [CM-1758, 2-[4-[[[2-(2,5-dimethyl-3-furyl)-6,7-dimethoxy-4-quinolyl]amino]methyl] -1-piperidyl]pyrimidine-5-carbohydroxamic acid], for which the “H3Ac level (western blot)” value in series [1] is on record as “significant increase in H3Ac”. For the same compound, the “H3K27me3 level (western blot)” value in series [1] is on record as “no changes in H3K27me3”. In series [2], this compound had an IC50 of 31 nM. In series [2], at 10 µM the inhibition was 90%. The tumor growth entry in series [3] and in series [4] was “tumor growth was significantly slower” in each case. Moreover, the Tumor volume in series [3] (day 0, in mm³) was 0; in series [3] (day 6) it was 14.6888 and 24.2273 and 0 (4×) and 45.3546; in series [3] (day 8), 103.082 and 62.3824 and 0 (2×) and 92.0448 and 53.4746 and 85.0123; in series [3] (day 10, in mm³), 433.416 and 271.101 and 281.205 and 32.0688 and 347.688 and 41.4834 and 382.357; in series [3] (day 13, in mm³) it was 1283.62 and 996.2 and 1210.81 and 1389.27 and 1272.73 and 1452.46 and 1063.15; in series [4] (day 0, in mm³), 0. Moreover, the Tumor volume in series [4] (day 5, in mm³) was 0; in series [4] (day 7, in mm³) it was 0; in series [4] (day 9) it was 1.83 and 2.997 and 3.143 and 0 (4×) and 2.907; in series [4] (day 12, in mm³), 16.9153 and 75.9412 and 211.561 and 0 and 9.058 and 82.0914 and 8.878 and 27.0425; in series [4] (day 14, in mm³) it was 153.626 and 316.908 and 512.533 and 39.4763 and 33.8029 and 280.96 and 104.197 and 181.612; in series [4] (day 16, in mm³), 325.692 and 736.294 and 1010.72 and 175.673 and 76.8746 and 574.138 and 425.416 and 598.506. In addition, the efflux ratio at 120 min, 2 µM in series [5] is over 1050. In series [5], this compound yielded an apparent permeability from apical to basolateral (Papp A→B) at 120 min, 2 µM of under 0.01 ×10⁻⁶ cm/s. For the same compound, the “DNA damage (γ-H2AX)” value in series [6] is given as “do not induced DNA damage”. Moreover, the figures for the half-life at 1 µM in series [7] (setting [8]) and in series [7] (setting [9]) were 92.1 min and 19.5 min, respectively.
